Source: ChEMBL document CHEMBL1201862, “PubChem BioAssay data set” (2004)
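Following 48 hours of exposure in 96-well plates, responses at five concentrations were used to interpolate endpoints linearly. GI50 is the concentration that inhibits growth by half.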 Calls of active or inactive are those of the source. No stated cut-off is given here; in the data, active = GI50 up to about 1.1 µM and inactive = higher.

Experiments:
Assay in all cases: growth of human tumour cells (NCI), 48 h
[1] = tested on: MDA-N
[2] = tested on: SNB-75
[3] = tested on: OVCAR-5
[4] = tested on: HCT-15
[5] = tested on: HL-60
[6] = tested on: SK-MEL-28
[7] = tested on: 786-0
[8] = tested on: NCI-H522
[9] = tested on: HOP-92
[10] = tested on: T47D
[11] = tested on: SN12C
[12] = tested on: HCT-116
[13] = tested on: UACC-257
[14] = tested on: K562
[15] = tested on: OVCAR-8
[16] = tested on: MCF7
[17] = tested on: M14
[18] = tested on: PC-3
[19] = tested on: SF-268
[20] = tested on: RPMI-8226

In the case of O=C(c1cccs1)N(C(=S)OCCOc1ccccc1)c1ccccc1, the GI50 [1] is reported as 17.2 µM (inactive), the GI50 [2] is reported as 24.3 µM (inactive) and the GI50 [3] is reported as 28.4 µM (inactive). The GI50 [4] was 27.4 µM, the GI50 [5] was 27.6 µM (inactive) and the GI50 [6] was 24.8 µM (inactive). The GI50 [7] was 25.2 µM (inactive), the GI50 [8] was 23 µM (inactive) and the GI50 [9] was 18.8 µM (inactive). The GI50 [10] was 35.8 µM (inactive), the GI50 [11] was 22.1 µM (inactive) and the GI50 [12] was 19.4 µM (inactive). For the same molecule, the GI50 [13] was 29.4 µM (inactive), the GI50 [14] was 36.1 µM (inactive) and the GI50 [15] was 25.5 µM (inactive). For the same molecule, the GI50 [16] was 20.2 µM (inactive), the GI50 [17] was 17 µM (inactive) and the GI50 [18] was 24.7 µM (inactive). The GI50 [19] was 34.1 µM (inactive) and the GI50 [20] was 20.9 µM (inactive).
